The values below come from patent US9416348B2, “Hepatocyte-like cells and uses thereof” (priority 2010, dated 2016).

The series concerns iHep cells. As to the kind of experiment: CYP metabolism assay, iHep cells incubated with substrate, metabolite by LC-MS/MS. The settings on record: for 4′-OH-Diclotenac: mouse, 3 h. The protocol:
To determine Alb secretion, TTFs transduced with three factors were cultured in the medium without phenol red. Culture supernatant was collected 24 h after medium change. The amount of Alb in the supernatant was determined by the mouse albumin ELISA kit (BETHYL LABORATORY) according to the manufacturer's instructions. […] The supernatants were collected for measurement of indicated productions by LC-MS/MS (AGILENT 1200 HPLC and ABI 4000 mass-spectrometer). Freshly isolated hepatocytes were used as a positive control. Total cell protein amount was used to normalize the data.
Metabolites of these chemicals were measured by liquid chromatography-tandem mass spectrometry (LC/MS/MS) according to each standard curve.

`O=C(O)Cc1ccccc1Nc1c(Cl)cccc1Cl` [Diclofenac, diclofenac]: the “4′-OH-Diclotenac” value runs as follows: (12.5 μM) 0.0 pmol/min/mg protein; (25 μM) 17.0 ± 8.0 pmol/min/mg protein; (50 μM) 195.4 ± 16.0 pmol/min/mg protein; (100 μM) 483.3 ± 60.1 pmol/min/mg protein.

Consider `C[C@]12CC[C@H]3[C@@H](CCC4=CC(=O)CC[C@@]43C)[C@@H]1CC[C@@H]2O` [Testosterone, testosterone], for which, for the setting “iHep cells, P<0.05”, the “metabolism by iHep cells” value is given as “metabolized”.
